Reference: US4910225A, “Locally administrable therapeutic composition for inflammatory disease” (Senju Pharmaceutical Co., Ltd., priority 1988, dated 1990)

Columns and labels:
[1] = test system: carrageenin edema in rats; assay: Carrageenin edema of the conjunctiva in rats; format: in vivo; details: 4 hours after carrageenin; for Weight of Edema: mean ± SE for 10 eyes
Procedure: 1. Sodium 3-(4-bromobenzoyl)-2-aminophenyl-acetate (hereinafter referred to as Compound [I])
2. Sodium 3-(4-chlorobenzoyl)-2-aminophenyl-acetate (hereinafter referred to as Compound [II])
3. Sodium 3-benzoyl-2-aminophenylacetate (hereinafter referred to as Compound [III])
Using female Wister rates weighing 100 g in groups of 5 animals or 10 eyes, 0.05 ml of 1% carrageenin (dissolved in physiological saline at 50° C.) as a phlogogen was injected beneath the conjuctiva of both eyes to induce edema. Physiological saline, as a control, and test drugs were respectively instilled into both eyes 40 and 20 minutes before and immediately after the injection of carrageenin, in the amount of 2.5 μl per dose. Four hours after the phlogogen treatment, each animal was sacrificed by cervical dislocation and in accordance with the method of Maistrello et al.^(2), the scalp was peeled off toward the eyelid and the edematous portion together with the skin was removed along the lid margin and weighed.
^(2) Maistrello et al.: Quantitative Effect of Topically Applied Anti-inflammatory Agents on External Ocular Inflammation in Rats: Journal of Pharmaceutical Science, volume 62, pp. 1455-60(1973).

[2] = test system: atropine-resistant miosis; assay: Atropine-resistant miosis after paracentesis; format: in vivo, albino rabbits
Procedure: (§1) The solutions of the following formulas were used.
(§2) Totally 28 male albino rabbits (4 rabbits×7 groups) with a body weight of about 2 kg werr used. They had been confirmed, before the experiment, to have mydriatic response to 1% atropine for at least 4 hours.
(§3) 50 μl each of 1% atropine solution was instilled into both eyes of the animals one hour before the 1st paracenthesis, in which approx. 0.2 ml/eye of aqueous humor (primary aqueous humor) was collected. Topical application of 50 μl each of the test drug solutions was conducted 30 min before the paracenthesis. Pupil diameter of each eye was measured with a slide caliper immediately before and 10 min after the paracenthesis. The 2nd paracenthesis was conducted 90 min after the 1st one, in which approx. 0.2 ml/eye of aqueous humor (secondary aqueous humor) was collected.

[3] = test system: protein increase after paracentesis; assay: Protein increase in aqueous humor after paracentesis; format: in vivo, albino rabbits; details: content 0.5%
Procedure: as §1, §2, §3

[4] = test system: cyclooxgenase; details: cited from earlier work

Compound	Degree of inhibition (carrageenin edema) ([1]; 1.0%)	Weight of Edema ([1]; 1.0%)	Degree of inhibition (carrageenin edema) ([1]; 5.0%)	Weight of Edema ([1]; 5.0%)	Degree of inhibition (carrageenin edema) ([1]; 0.5%)	Weight of Edema ([1]; 0.5%)	Inhibitory activity on miosis after paracentesis ([2]; Compound [I] 0.0001-0.1%, indomethacin as high as 0.5%)	Inhibition (miosis) ([2]; content 0.5%)	Miosis ([2]; content 0.5%, 10 min after paracentesis)	Inhibition (protein increase) [3]	Cyclooxygenase inhibitory activity [4]
Nc1c(CC(=O)[O-])cccc1C(=O)c1ccccc1.[Na+] [Compound [III], Sodium 3-benzoyl-2-aminophenylacetate]	41.4%	30.98 ± 3.194 mg	37.9%	32.80 ± 2.409 mg							
Nc1c(CC(=O)[O-])cccc1C(=O)c1ccc(Cl)cc1.[Na+] [Compound [II], Sodium 3-(4-chlorobenzoyl)-2-aminophenyl-acetate]	34.4%	39.02 ± 3.057 mg			36.9%	37.52 ± 2.423 mg					
COc1ccc2c(c1)c(CC(=O)O)c(C)n2C(=O)c1ccc(Cl)cc1 [Indomethacin, reference compound]							little effect was observed	6.0 ± 21.4%	16.4 ± 3.86%	69.7%	strong cyclooxgenase inhibitory activity
